One compound from US8398958B2, “Carotenoid compositions useful for whitening skin” (I.B.R. Israeli Biotechnology Research Ltd., priority 2006, dated 2013) can be followed below.

Assay [1] concerns Normal human epidermal melanocytes (NHEM-2). Nature of the assay: Melanin assay - normal human melanocytes. The format is cell-based. Particulars: for Melanin: 240 hours incubation; for % of control (melanin content): 240 hours, vs control. The protocol: The R6-NHEM-2 cells were cultivated in 24 well plates (120,000 cells/well). At 50% confluence, culture media were replaced by fresh media containing or not containing (control) the test compound, KA or IBMX (references) or DMSO at a final concentration of 0.5% (control DMSO). Each experimental condition was examined in triplicate (hexaplicate for control). The cells were incubated at 37° C. for 240 hours with medium change every 3 days.
(§1) After incubation, the cell monolayers were rinsed, the cells were lysed and melanin was extracted by a solution 0.5 M NaOH. The optical density (OD) of each experimental point was measured at 405 nm against melanin standards (standard curve 0.39 to 100 μg melanin/ml solution, Sigma M8631). Results were expressed in μg melanin/ml and in percent of the negative control.
(§2) The raw data were transferred to and analyzed with PRISM® software (Graph Pad Software). The inter-group comparisons were performed by variance analysis (ANOVA) with multiple comparison test of Dunnett.

In assay [2] the test system is B16 murine melanoma cells. Nature of the assay: Melanin assay - B16 murine melanoma. As to conditions: tested at 0.04%. The format is cell-based. The protocol:
The R7-B16 cells were cultivated in 24 well plates (1000 cells/well). At 20% confluence, culture media were replaced by fresh media containing or not containing (control) the test compound, KA or IBMX (references) or DMSO at a final concentration of 0.5% (control DMSO). Each experimental condition was examined in triplicate. The cells were incubated at 37° C. for 144 hours with medium change after 3 days (2×72 h).
as §1, §2

With `O=c1cc(CO)occ1O` [Kojic Acid], the Melanin was found to be 16.1 µg/mL in assay [1] (tested at 0.00156%), 13.6 µg/mL in assay [1] (tested at 0.0036%) and 14.9 µg/mL in assay [2] (144 hours incubation). In addition, the “% of control (melanin content)” value came to 79% in assay [1] (tested at 0.00156%); 67% in assay [1] (tested at 0.0036%); 88% in assay [2] (144 hours, vs control).
